How the values were obtained:
[1] = system: THP-1 human monocyte cell line; assay: Microarray gene expression in THP-1 cells, Polimunol vs Copaxone, two repeats, 6 hours (Example 11); format: cell-based
[2] = Long-term animal toxicity studies of TV-5010; parameters: species or system rats and monkeys; settings: in vivo
mouse splenocytes = assay: Microarray gene expression of ex vivo activated splenocytes from GA-immunized mice (Copaxone, Natco, Escadra, Probioglat, Hangzhou, TV-5010); format: cell-based
Text: After 3 days, the mice were sacrificed and cells from their spleens (splenocytes) were isolated because such cells are representative of, and commonly utilized as a gold standard to study the immune system.
Given the robustness of the model established in our first mouse splenocyte study, we sought to expand the scope of the investigation using the exact same study design, but with an expanded set of treatments (FIG. 1). In addition to comparing Copaxone® to a purported foreign generic version, we also sought to compare purported generics from various manufacturers to each other.
Extraction of total RNA from activated splenocytes was extracted using PerfectPure RNA Cultures CEKK kit 50 (5Prime GmbH, Hamburg, Germany) and following the manufacturer's instructions. RNA quality was assessed using the absorbance ratio at 260/280 nm and gel electrophoresis (Experion, Bio-Rad, Hercules, Calif., USA). Total RNA extracted from samples was hybridized to Illumina Mouse WG-6V2 microarray chips containing more than 45,200 transcripts.
Samples were randomized on the chips to avoid batch effects. Illumina's BeadStudio software was utilized for image processing, quantification of signal intensity per bead, and background signal correction. Multiple probes were analyzed for a given gene were averaged and batch correction was conducted using Partek. […]

human PBMC = assay: Immunological cell type enrichment for genes modulated by GA in human PBMC; format: in vivo; parameters: Score: scale not given here
Text: Genome-wide expression profiles in cells from three different datasets in two different species (human, mouse) were studied. LIMMA was utilized to identify a genome-wide list of differentially expressed genes induced by GA in the primed and ex vivo stimulated mouse splenocytes, as well as in the THP-1 human monocyte cell line. Repeated-measures ANOVA was utilized to find a genome-wide list of genes modulated by GA in treated MS patients. Advanced enrichment algorithms were then applied to elucidate the pathways and cell types modulated by GA.
In addition to the shared induced effects discussed above, each system and platform clearly captured different aspects of GA's impact on the immune system. […] In human PBMCs, genes associated with immune cell types were modulated early in treatment (by month 3), including certain cell types affected in prior systems, but also distinct cell types, such as megakaryocytes and myeloid progenitors (Table 11).

[3] = format: in vivo, human
Text: The Teva Patient Support Program in Mexico has an extensive database. Given that patients can switch between branded and purported generic GA, all patients are kept within the database and are provided with patient support services.
The number of relapses reported by patients in Teva's Patient Support Program on a monthly basis during the years 2012 and 2013 i. It is again clear that when Copaxone alone was in use (i.e. throughout 2012) the overall, as well as per-month number of relapses was lower than that reported when Probioglat was present in the market (i.e. throughout 2013).
These findings have identified significant differences that warrant further investigation, especially in light of the observed clinical effects of Probioglat's introduction. The Teva Patient Support Program in Mexico records numbers of adverse events, including during the years 2012 and 2013 (Table 31; FIG. 46), for which a similar number of patients were tracked (1618 patients in 2012; 1552 in 2013). Probioglat was first introduced in January 2013; subsequently, each time a patient's prescription was filled, it could be with either Probioglat or GA. […] The gene-expression differences observed herein warrant careful investigation, through studies comparing GA to candidate generics in meaningful settings, most comprehensively including clinical trials.

[4] = In two prior THP-1 studies (intersection of both prior datasets)
[5] = Intersection of prior THP-1 studies and current study
[6] = BASO1.rnk, Upregulated, Cluster 2
[7] = BCELLA1.rnk, Downregulated, Cluster 0
[8] = BCELLA2.rnk, Downregulated, Cluster 0
[9] = BCELLA3.rnk, Downregulated, Cluster 0
[10] = BCELLA4.rnk, Downregulated, Cluster 0
[11] = CMP.rnk, Upregulated, Cluster 4
[12] = EOS2.rnk, Upregulated, Cluster 2
[13] = ERY1.rnk, Upregulated, Cluster 2
[14] = ERY1.rnk, Upregulated, Cluster 4
[15] = ERY2.rnk, Upregulated, Cluster 2
[16] = ERY2.rnk, Upregulated, Cluster 4
[17] = ERY3.rnk, Upregulated, Cluster 2
[18] = ERY3.rnk, Upregulated, Cluster 4
[19] = ERY4.rnk, Upregulated, Cluster 2
[20] = ERY4.rnk, Upregulated, Cluster 4
[21] = ERY5.rnk, Upregulated, Cluster 2
[22] = ERY5.rnk, Upregulated, Cluster 4
[23] = GMP.rnk, Upregulated, Cluster 4
[24] = GRAN1.rnk, Upregulated, Cluster 2
[25] = GRAN2.rnk, Upregulated, Cluster 4
[26] = HSC3.rnk, Upregulated, Cluster 4
[27] = MEGA1.rnk, Upregulated, Cluster 4
[28] = MEGA2.rnk, Upregulated, Cluster 0
[29] = MEGA2.rnk, Upregulated, Cluster 4
[30] = MEP.rnk, Upregulated, Cluster 2
[31] = PRE_BCELL3.rnk, Upregulated, Cluster 2

Substance: glatiramer acetate [Copaxone®]
- Probesets significantly modulated by Copaxone relative to mannitol ([1]; 6 hours): 12,115
- IL1ORA expression relative to mannitol ([1]; FDR p<1.7e-21): significantly upregulated
- Probesets downregulated by Copaxone versus mannitol with FC ≦ −1.5, number ([1]; In current study): 28
- Probesets upregulated by Copaxone versus mannitol with FC ≧ 1.5, number ([1]; In current study): 156
- Probesets downregulated by Copaxone versus mannitol with FC ≦ −1.5, number [1, 4]: 15
- Probesets upregulated by Copaxone versus mannitol with FC ≧ 1.5, number [1, 4]: 149
- Probesets downregulated by Copaxone versus mannitol with FC ≦ −1.5, number [1, 5]: 9
- Probesets upregulated by Copaxone versus mannitol with FC ≧ 1.5, number [1, 5]: 94
- IL1RN expression relative to mannitol ([1]; all 3 present probesets: FDR p values<6.2e-21, 2.6e-17, 8.0e-14): strongly upregulated
- IL10 expression relative to mannitol ([1]; single probeset not present): not upregulated significantly
- Significant probesets in pairwise comparisons between three Copaxone lots ([1]; two comparisons / third comparison (adjusted p value 0.044)): zero and single
- Probesets significantly downregulated by Copaxone ([1]; vs mannitol, 6 hours): 6819
- Probesets significantly upregulated by Copaxone ([1]; vs mannitol, 6 hours): 5296
- Toxicity in long-term animal studies [2]: never seen
- IL1B expression, Copaxone compared with Natco purported generic (mouse splenocytes; first mouse splenocyte study, adjusted p=0.043 by ANOVA): significantly lower IL1B expression
- IL1B expression relative to medium (mouse splenocytes; mouse splenocytes): extremely effective in downregulating IL1B
- Score (human PBMC; [6]): 87.3
- p.val (human PBMC; [6]): 0.00322
- Score (human PBMC; [7]): −19.11
- p.val (human PBMC; [7]): 0.002737
- Score (human PBMC; [8]): −25.77
- p.val (human PBMC; [8]): 0.0004201
- Score (human PBMC; [9]): −20.11
- p.val (human PBMC; [9]): 0.001385
- Score (human PBMC; [10]): −21.51
- p.val (human PBMC; [10]): 0.002538
- Score (human PBMC; [11]): 23.19
- p.val (human PBMC; [11]): 0.002214
- Score (human PBMC; [12]): 62.69
- p.val (human PBMC; [12]): 0.002286
- Score (human PBMC; [13]): 28.25
- p.val (human PBMC; [13]): 0.003043
- Score (human PBMC; [14]): 45
- p.val (human PBMC; [14]): 0.002587
- Score (human PBMC; [15]): 32.83
- p.val (human PBMC; [15]): 8.43E−05
- Score (human PBMC; [16]): 47.25
- p.val (human PBMC; [16]): 4.70E−06
- Score (human PBMC; [17]): 84.62
- p.val (human PBMC; [17]): 0.0002869
- Score (human PBMC; [18]): 90.02
- p.val (human PBMC; [18]): 0.009061
- Score (human PBMC; [19]): 69.44
- p.val (human PBMC; [19]): 0.0001417
- Score (human PBMC; [20]): 77.38
- p.val (human PBMC; [20]): 0.001966
- Score (human PBMC; [21]): 64.23
- p.val (human PBMC; [21]): 9.88E−07
- Score (human PBMC; [22]): 73.42
- p.val (human PBMC; [22]): 0.0009808
- Score (human PBMC; [23]): 33.13
- p.val (human PBMC; [23]): 0.0001427
- Score (human PBMC; [24]): 55.17
- p.val (human PBMC; [24]): 0.0005577
- Score (human PBMC; [25]): 35.18
- p.val (human PBMC; [25]): 0.00875
- Score (human PBMC; [26]): 45.41
- p.val (human PBMC; [26]): 0.0002875
- Score (human PBMC; [27]): 38.05
- p.val (human PBMC; [27]): 4.66E−09
- Score (human PBMC; [28]): 32.43
- p.val (human PBMC; [28]): 1.24E−12
- Score (human PBMC; [29]): 64.46
- p.val (human PBMC; [29]): 4.41E−12
- Score (human PBMC; [30]): 30.54
- p.val (human PBMC; [30]): 0.009388
- Score (human PBMC; [31]): 57.94
- p.val (human PBMC; [31]): 3.98E−08
- Numbers of relapses reported ([3]; 2012, only branded GA marketed, 1618 patients): 8
- Adverse Event Rate (per month) ([3]; human, in vivo): 10.4 per month
- Numbers of adverse events reported ([3]; human, in vivo): 125
